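Dose response: 5 concentrations. Exposure: 48 h. Format: 96-well plates. Endpoint: linear interpolation; highest concentration if not reached. The concentration for 50% growth inhibition is given as GI50. TGI is the concentration that stops growth completely.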
Tests used:
Test in all cases: growth of human tumour cells (NCI), 48 h
CAKI-1 renal = tested on: CAKI-1 renal
IGROV1 ovarian = tested on: IGROV1 ovarian
K-562 leukemia = tested on: K-562 leukemia
SF-539 CNS = tested on: SF-539 CNS
SK-MEL-2 melanoma = tested on: SK-MEL-2 melanoma
SK-OV-3 ovarian = tested on: SK-OV-3 ovarian
SW-620 colon = tested on: SW-620 colon
UACC-257 melanoma = tested on: UACC-257 melanoma
SK-MEL-28 melanoma = tested on: SK-MEL-28 melanoma
MDA-MB-231 breast = tested on: MDA-MB-231 breast

Structure (SMILES) | TGI (CAKI-1 renal) [µM] | TGI (IGROV1 ovarian) [µM] | TGI (K-562 leukemia) [µM] | TGI (SF-539 CNS) [µM] | TGI (SK-MEL-2 melanoma) [µM] | TGI (SK-OV-3 ovarian) [µM] | TGI (SW-620 colon) [µM] | TGI (UACC-257 melanoma) [µM] | TGI (SK-MEL-28 melanoma) [µM] | GI50 (CAKI-1 renal) [µM] | GI50 (IGROV1 ovarian) [µM] | GI50 (SF-539 CNS) [µM] | GI50 (SK-MEL-2 melanoma) [µM] | GI50 (SK-MEL-28 melanoma) [µM] | GI50 (SK-OV-3 ovarian) [µM] | TGI (MDA-MB-231 breast) [µM] | GI50 (K-562 leukemia) [µM] | GI50 (SW-620 colon) [µM]
CCCN(CCC)C(=O)C(=O)c1c(N)[nH]n(-c2ccccc2)c1=O | > 100 | > 100 | > 100 | > 100 | > 100 | > 100 | > 100 | > 100 | – | – | – | – | – | – | – | – | – | –
O=C1/C(=N\O)S(=O)(=O)c2ccccc21 | > 100 | > 100 | > 100 | > 100 | > 100 | > 100 | > 100 | > 100 | – | – | – | – | – | – | – | – | – | –
NC(=O)NC12CC3CC(CC(F)(C3)C1)C2 | – | > 100 | > 100 | > 100 | > 100 | > 100 | > 100 | > 100 | > 100 | – | – | – | – | – | – | – | – | –
CC(C)(c1ccccc1)c1ccc(Oc2ccc(C#N)c(C#N)c2)cc1 | > 100 | > 100 | > 100 | > 100 | > 100 | > 100 | > 100 | – | > 100 | > 100 | > 100 | > 100 | > 100 | > 100 | > 100 | – | – | –
O=C(O)C(CS)NCc1c2ccccc2nc2ccccc12 (stereo unspecified) | > 100 | > 100 | > 100 | > 100 | > 100 | > 100 | > 100 | > 100 | > 100 | – | – | – | – | – | – | – | – | –
O=[N+]([O-])c1cc(Cl)cnc1Br | – | 8.32 | 6.08 | 4.5 | – | 22.4 | 12.7 | 22.6 | 10.2 | – | – | – | – | – | – | 12.2 | – | –
COC1=C(C)C(=O)c2c(cc3c(c2O)C(C)(CCC=C(C)C)C(C)O3)C1=O (stereo unspecified) | > 100 | > 100 | > 100 | > 100 | > 60.8 | > 100 | > 100 | > 100 | > 100 | – | – | – | – | – | – | – | – | –
CNC(=O)OCc1c2ccncc2c(C)c2c1[nH]c1ccc(OC)cc12 | > 100 | 4.56 | 2.48 | 0.719 | 0.509 | 0.866 | > 100 | – | 2.04 | – | – | – | – | – | – | – | – | –
COC(=O)C(CC1=C(O)Nc2ccccc2N1)/C(=N/NC(N)=O)C(=O)Nc1ccccc1C (stereo unspecified) | > 100 | > 100 | > 100 | > 100 | > 100 | > 100 | – | > 100 | > 100 | – | – | – | – | – | – | – | – | –
COc1ccc(C(=O)/C=C/c2cccc(Nc3ccnc4cc(Cl)ccc34)c2)cc1 | – | 6.53 | 18.1 | 4.3 | – | 7.98 | 20 | – | – | – | 1.44 | 1.7 | – | – | 2.22 | – | 1.64 | 1.98
COc1cccc(NC(=O)CC(=O)N2N=C(N3c4ccccc4Sc4ccccc43)CC2c2ccccc2)c1 (stereo unspecified) | > 100 | > 100 | – | > 100 | – | > 100 | > 100 | > 100 | > 100 | – | – | – | – | – | – | – | – | –
CCc1ccccc1NC(=O)/C(N=O)=C(/C)O | > 100 | > 100 | > 100 | > 100 | > 100 | > 100 | > 100 | > 100 | > 100 | – | – | – | – | – | – | – | – | –

Source: PubChem BioAssay (NCI)
